{"source": "patent US8853215B2", "about": "“Derivatives of N-acyl-N′-phenylpiperazine useful (inter alia) for the prophylaxis or treatment of diabetes” (Takeda Pharmaceutical Company Limited, priority 2009, dated 2014)", "key": {"RBP4 [1]": {"target": "RBP4 (Mus musculus (Mouse), UniProt Q00724)", "assay": "Single administration test in mice, plasma RBP4 by ELISA", "type": "in vivo", "conditions": "male C57BL/6J or ICR mice, 50 mg/kg oral single dose, mean±SD", "method_in_brief": "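Male 6–12-week-old C57BL/6J or ICR mice on CE2 diet received compound orally at 50 mg/10 mL/kg in 0.5% methylcellulose (3–5 per group). Plasma sampled at 0, 4, 7 and 24 hr post-dose; RBP4 measured by sandwich ELISA (OD 450 nm) against mouse recombinant RBP4 standards, expressed as % of initial/Control.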"}, "RBP4 [2]": {"target": "RBP4 (Rattus norvegicus (Rat), UniProt P04916)", "assay": "Single administration test in Wistar fatty rats, plasma RBP4 by ELISA", "type": "in vivo", "conditions": "male Wistar fatty rats, 10 mg/kg oral single dose, mean±SD", "description": "The action of the compounds of the present invention to lower plasma RBP4 level was evaluated using the animal model shown below.\nMale Wistar fatty rats (fa/fa) were bred in Takeda Pharmaceutical Company Limited and maintained on normal diet (CE2, CLAE Japan, Inc.) and tap water. Animals were housed in a temperature-controlled room adjusted to a 12-hour light/12-hour dark cycle beginning at 7:00 and 19:00, respectively. All procedures were conducted according to the experimental animal care use committee of Takeda Pharmaceutical Company.\nMale 13-43-week-old Wistar fatty rats were divided into groups randomly. Compounds were suspended in 0.5% (w/v) methylcellulose in water and given orally to Wistar fatty rats at a dose of 10 mg/10 mL/kg of body weight (3-5 rats per group). Blood samples were obtained from tail vein with sodium heparin as an anticoagulant at time 0 hr (just before the administration), 4 hr, 7 hr, and 24 hr after the administration, followed by plasma separation by centrifugation. Plasma RBP4 levels were measured by enzyme-linked immunosorbent assay described in the following section.\nPlasma samples were analyzed in duplicate for RBP4 by an enzyme-linked immunosorbent assay. Mouse recombinant RBP4 (Takeda Pharmaceutical Company Limited) was used as standards, and the assay range was 0.313-20 ng/ml. Samples were diluted 10,000-fold with phosphate-buffered saline (PBS) (Sigma) containing 10% (w/v) BlockAce (Dainippon Sumitomo Pharma Co., Ltd). Rabbit anti-RBP4 polyclonal antibody (100 μL/well of 50 μg/mL, Hokudo Co, Ltd) was incubated in a 96-well plate (Nalge Nunc International K.K.) for overnight at 4° C. Subsequently, the plates were washed with PBS-T (Wako Pure Chemical Industries, Ltd.) and blocked with PBS containing 25% BlockAce for 1 hr at room temperature. After another washing with PBS-T, samples and standards were applied to the well, and the plates were incubated for 2 hr at room temperature. After a washing the wells, peroxidase-labeled (Dojindo Laboratories) anti-RBP4 (100 μL/well) was added to the wells, and then the plates were incubated for 1 hr at room temperature. After a final washing with PBS-T, substrate solution 3,3,5,5-tetramethylbenzidine (Sigma) was added to the wells, and the plates were placed in the dark for 5-20 min at room temperature. The reaction was stopped with 0.5 M sulphuric acid and the optical density was measured with a spectrophotometer at 450 nm. The changes in plasma RBP4 levels were expressed as % of initial/Control. All data are presented as mean±SD."}, "[3]": {"conditions": "0 hr (just before the administration)"}}}
{"smiles": "CC(C)(C)c1ccccc1N1CCN(C(=O)C(=O)O)CC1", "note": "[Example 44, 2-[4-(2-tert-Butylphenyl)piperazin-1-yl]-2-oxoacetic acid]", "values": [{"measurement": "RBP4 (% of initial/Control) 0 hr", "setting": "RBP4 [1]; [3]", "result": "100.0 ± 25.0 % of initial/Control"}, {"measurement": "RBP4 (% of initial/Control) 4 hr", "setting": "RBP4 [1]; 4 hr after administration", "result": "52.4 ± 2.8 % of initial/Control"}, {"measurement": "RBP4 (% of initial/Control) 7 hr", "setting": "RBP4 [1]; 7 hr after administration", "result": "50.2 ± 0.9 % of initial/Control"}, {"measurement": "RBP4 (% of initial/Control) 24 hr", "setting": "RBP4 [1]; 24 hr after administration", "result": "145.9 ± 19.6 % of initial/Control"}, {"measurement": "RBP4 (% of initial/Control) 0 hr", "setting": "RBP4 [2]; [3]", "result": "100.0 ± 13.8 % of initial/Control"}, {"measurement": "RBP4 (% of initial/Control) 4 hr", "setting": "RBP4 [2]; 4 hr after administration", "result": "59.6 ± 14.5 % of initial/Control"}, {"measurement": "RBP4 (% of initial/Control) 7 hr", "setting": "RBP4 [2]; 7 hr after administration", "result": "58.5 ± 5.6 % of initial/Control"}, {"measurement": "RBP4 (% of initial/Control) 24 hr", "setting": "RBP4 [2]; 24 hr after administration", "result": "106.0 ± 16.1 % of initial/Control"}]}
